Measured values reported in ChEMBL document CHEMBL1759903, “Pentacycloundecane-based inhibitors of wild-type C-South African HIV-protease” (Bioorg Med Chem Lett, 2011).
Peptide text beside a SMILES is read from it. * marks the point of attachment. X1 = Oc1cccc(N*)c1

Target: Protease (Human immunodeficiency virus 1, UniProt Q9YQ12)
Assay: Inhibition of HIV1 subtype C protease expressed in Escherichia coli BL21 assessed as hydrolysis of substrate using chromogenic substrate Lys-Ala-Arg-Val-Nle-p-nitro-Phe-Glu-Ala-Nle-NH2 by spectrophotometric analysis

Protease, sequence (Q9YQ12 whole entry): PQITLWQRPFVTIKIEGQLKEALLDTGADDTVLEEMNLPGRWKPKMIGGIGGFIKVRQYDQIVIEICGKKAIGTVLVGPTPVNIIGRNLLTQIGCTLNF

IC50 [nM]	Structure (SMILES)
500	CC[C@H](C)[C@H](N)C(=O)N[C@@H](C)C(=O)N[C@@H](CCC(=O)O)C(=O)NC12NC(=O)C3(O)C4C5CC(C6C5C3C61)C42 (mixture of isomers)
> 10000	CC[C@H](C)[C@H](NC(=O)[C@@H](N)CO)C(=O)N[C@@H](C)C(=O)N[C@@H](CCC(=O)O)C(=O)NC12NC(=O)C3(OC(C)=O)C4C5CC(C6C5C3C61)C42 (mixture of isomers)
4	COC(=O)N[C@H](C(=O)N[C@@H](Cc1ccccc1)[C@@H](O)CN(Cc1ccc(-c2ccccn2)cc1)NC(=O)[C@@H](NC(=O)OC)C(C)(C)C)C(C)(C)C [ATAZANAVIR]
5000	CC[C@H](C)[C@H](NC(=O)[C@@H](N)CO)C(=O)N[C@@H](C)C(=O)N[C@@H](CCC(N)=O)C(=O)NC12NC(=O)C3(O)C4C5CC(C6C5C3C61)C42 (mixture of isomers)
10000	CC[C@H](C)[C@H](NC(=O)[C@@H](N)CO)C(=O)N[C@@H](C)C(=O)N[C@@H](CCC(=O)O)C(=O)Nc1cccc(O)c1 (H-SIAE-X1)
10000	CC[C@H](C)[C@H](NC(=O)[C@@H](N)CO)C(=O)N[C@@H](C)C(=O)N[C@@]12NC(=O)[C@]3(O)C4C5CC(C6C5C3C61)C42 (some centres undefined)
2000	CC[C@H](C)[C@H](NC(=O)[C@@H](N)CO)C(=O)N[C@H](C(=O)N[C@@H](CCC(=O)O)C(=O)NC12NC(=O)C3(O)C4C5CC(C6C5C3C61)C42)C(C)C (mixture of isomers)
500	CC[C@H](C)[C@H](NC(=O)[C@@H](N)CO)C(=O)N[C@@H](C)C(=O)N[C@]12NC(=O)[C@@]3(O)C4C5CC(C6C5C3C61)C42 (some centres undefined)

Structure (SMILES)	IC50 [nM]
CC[C@H](C)[C@H](NC(=O)[C@@H](N)CO)C(=O)N[C@@H](C)C(=O)N[C@@H](CCC(=O)O)C(=O)NC12NC(=O)C3(O)C4C5CC(C6C5C3C61)C42 (mixture of isomers)	78
